Values after ≈ are worked out from the molar mass of the structure shown. Where two headings read alike, the source gives them in different places.
What was measured:
[1] = test system: Staphylococcus aureus MSSA; assay: in vitro bacteriostatic activity, agar dilution MIC; type: cell-based; settings: Staphylococcus aureus, MSSA, read-out: MIC
[2] = mouse, in vivo, po; cited from earlier work
[3] = test system: Gram-positive bacteria and Gram-negative bacteria; assay: in vitro bacteriostatic activity, summary of Tables 1-5; type: cell-based; settings: read-out: MIC values
Method: Preparation of drug-containing flat plates: patchoulol was diluted by coubling double dilution in DMSO, and 1 ml and 14 ml of sterile MH culture media in different gradient concentrations were respectively added to the disposable sterile petri dishes. Tested drugs were respectively diluted to different gradient concentrations from 768 to 0.006 µg/ml, fully mixed, and dried to reserve. As mentioned above, replacing tested drug with same amount of normal saline was used to prepare positive control plates.
Preparation of bacterial liquid: Tested strains and drug-sensitive strains used for quality control were diluted with stroke-physiological saline solution to the concentration of 10^6 CFU/ml. […]
Staphylococcus aureus and Staphylococcus epidermidis were cultured at 35-37°C for 18-24 h in MH media (containing 2% NaCl); Streptococcus pneumonia was cultured in brain heart infusion agar media (containing 5% goat blood) within an incubator under 5% CO2 at 35°C for 24 hours; Gram-negative bacteria and other strains were placed in an incubator at 35-37°C and cultured for 18-20 h; Results were observed and recorded. […]

xylene-induced ear edema = settings: mice, dose-dependent; cited from earlier work
Staphylococcus xylosus = assay: in vitro bacteriostatic activity, agar dilution MIC; type: cell-based
[4] = test system: influenza virus A/PR/8/34 (H1N1); settings: in vitro; cited from earlier work
Megasphaera elsdenii = assay: in vitro bacteriostatic activity, agar dilution MIC; type: cell-based
Streptococcus bovis = assay: as above; type: cell-based; settings: Streptococcus equinus; Streptococcus bovis 12-3
[5] = test system: influenza virus type A (H2N2); settings: in vitro; cited from earlier work
Pseudomonas aeruginosa = assay: in vitro bacteriostatic activity, agar dilution MIC; type: cell-based; settings: Pseudomonas aeruginosa12-1
termites = settings: in vivo; cited from earlier work
Proteus vulgaris = assay: in vitro bacteriostatic activity, agar dilution MIC; type: cell-based; settings: Proteus vulgaris 12-1
Enterococcus faecalis = assay: as above; type: cell-based; settings: Enterococcus faecalis, read-out: MIC
Kurthia gibsonii = assay: as above; type: cell-based
vomit response = settings: chickens, 50-70 mg/kg; cited from earlier work
Acinetobacter lwoffii = assay: in vitro bacteriostatic activity, agar dilution MIC; type: cell-based
[6] = test system: humoral immunity and mononuclear phagocyte functions; settings: intragastric 40 and 80 mg/(kg·d) for successive 7 days; cited from earlier work
Escherichia coli = assay: in vitro bacteriostatic activity, agar dilution MIC, quality control strain and summary; type: cell-based
Streptococcus uberis = assay: in vitro bacteriostatic activity, agar dilution MIC; type: cell-based; settings: Streptococcus uberis 12-1
[7] = test system: Staphylococcus epidermidis MSSE; assay: as above; type: cell-based; settings: Staphylococcus epidermidis, read-out: MIC
influenza virus H2N2 = settings: intragastric administration of 5 mg/(kg·d); cited from earlier work
Enterobacter cloacae = assay: in vitro bacteriostatic activity, agar dilution MIC; type: cell-based
Staphylococcus aureus = assay: in vitro bacteriostatic activity, agar dilution MIC, quality control strains; type: cell-based; settings: read-out: MIC

Compound: C[C@H]1CC[C@@]2(O)C(C)(C)[C@@H]3CC[C@@]2(C)[C@H]1C3 (stereo in doubt) [PC, (1R,4S,4aS,6R,8aS)-octahydro-4,8a,9,9-tetramethyl-1,6-methanonaphthalen-1(2H)-ol]
- MIC ([1]; Staphylococcus aureus MSSA 10-38): 1.5 µg/mL (≈ 6.75 µM)
- MIC ([1]; Staphylococcus aureus MSSA 10-40): 1.5 µg/mL (≈ 6.75 µM)
- MIC ([1]; Staphylococcus aureus MSSA 10-41): 1.5 µg/mL (≈ 6.75 µM)
- MIC ([1]; Staphylococcus aureus MSSA 12-11): 128 µg/mL (≈ 576 µM)
- MIC ([1]; Staphylococcus aureus MSSA 12-13): 128 µg/mL (≈ 576 µM)
- MIC ([1]; Staphylococcus aureus MSSA 12-14): 64 µg/mL (≈ 288 µM)
- MIC ([1]; Staphylococcus aureus MSSA 12-15): 128 µg/mL (≈ 576 µM)
- MIC ([1]; Staphylococcus aureus MSSA 12-16): 64 µg/mL (≈ 288 µM)
- MIC ([1]; Staphylococcus aureus MSSA 12-17): 64 µg/mL (≈ 288 µM)
- MIC ([1]; Staphylococcus aureus MSSA 12-18): 128 µg/mL (≈ 576 µM)
- MIC ([1]; Staphylococcus aureus MSSA 12-19): 128 µg/mL (≈ 576 µM)
- MIC ([1]; Staphylococcus aureus MSSA 12-20): 64 µg/mL (≈ 288 µM)
- MIC ([1]; Staphylococcus aureus MSSA 12-21): 64 µg/mL (≈ 288 µM)
- maximum tolerated dose [2]: less than 12.5 g/kg
- MIC [3]: 1.5 to 200 µg/mL (≈ 6.75 to 899 µM)
- xylene-induced ear edema (xylene-induced ear edema): effectively inhibit
- MIC (Staphylococcus xylosus; Staphylococcus xylosus 12-1 (first line, r17), read-out: MIC): 100 µg/mL (≈ 450 µM)
- MIC (Staphylococcus xylosus; Staphylococcus xylosus 12-1 (second line, r18)): 100 µg/mL (≈ 450 µM)
- IC50 [4]: ~2.64 µM
- MIC (Megasphaera elsdenii; Megasphaera elsdenii 12-1): 50 µg/mL (≈ 225 µM)
- MIC (Megasphaera elsdenii; Megasphaera elsdenii 12-2): 25 µg/mL (≈ 112 µM)
- MIC (Megasphaera elsdenii; Megasphaera elsdenii 12-3): 50 µg/mL (≈ 225 µM)
- MIC (Megasphaera elsdenii; Megasphaera elsdenii 12-4): 50 µg/mL (≈ 225 µM)
- MIC (Streptococcus bovis): 50 µg/mL (≈ 225 µM)
- IC50 [5]: 4.03 ± 0.23 µM
- MIC (Pseudomonas aeruginosa): 50 µg/mL (≈ 225 µM)
- effect on termites (termites): obviously toxic and removal effect
- MIC (Proteus vulgaris): 100 µg/mL (≈ 450 µM)
- MIC (Enterococcus faecalis; ATCC29212, Enterococcus faecalis ATCC 29212): 128 µg/mL (≈ 576 µM)
- MIC (Enterococcus faecalis; ATCC51299, Enterococcus faecalis (high endurance) ATCC 51299): 128 µg/mL (≈ 576 µM)
- MIC (Enterococcus faecalis; Enterococcus faecalis 12-11): > 128 µg/mL
- MIC (Enterococcus faecalis; Enterococcus faecalis 12-12): 32 µg/mL (≈ 144 µM)
- MIC (Enterococcus faecalis; Enterococcus faecalis 12-13): 128 µg/mL (≈ 576 µM)
- MIC (Enterococcus faecalis; Enterococcus faecalis 12-14): 64 µg/mL (≈ 288 µM)
- MIC (Enterococcus faecalis; Enterococcus faecalis 12-17): 128 µg/mL (≈ 576 µM)
- MIC (Enterococcus faecalis; Enterococcus faecalis 12-18): 128 µg/mL (≈ 576 µM)
- MIC (Enterococcus faecalis; Enterococcus faecalis 12-19): 128 µg/mL (≈ 576 µM)
- MIC (Enterococcus faecalis; Enterococcus faecalis 12-20): 128 µg/mL (≈ 576 µM)
- MIC (Enterococcus faecalis; Enterococcus faecalis 12-21): 64 µg/mL (≈ 288 µM)
- MIC (Enterococcus faecalis; Enterococcus faecalis 12-22): 64 µg/mL (≈ 288 µM)
- MIC (Kurthia gibsonii; Kurthia gibsonii 12-1, read-out: MIC): 50 µg/mL (≈ 225 µM)
- MIC (Kurthia gibsonii; Kurthia gibsonii 12-2): 50 µg/mL (≈ 225 µM)
- vomit response induced by CuSO4 (vomit response): obviously inhibit
- MIC (Acinetobacter lwoffii; Acinetobacter lwoffii 12-1, read-out: MIC): 50 µg/mL (≈ 225 µM)
- MIC (Acinetobacter lwoffii; Acinetobacter lwoffii 12-2): 50 µg/mL (≈ 225 µM)
- thymus gland index, spleen index, sanguinin content, and clearance index [6]: effectively improve
- MIC (Escherichia coli; ATCC25922, Escherichia coli ATCC 25922, read-out: MIC): 768 µg/mL (≈ 3450 µM)
- MIC (Escherichia coli; summary, Escherichia coli ESBLs /ESBLs^+, read-out: MIC values): ≥ 768 µg/mL
- MIC (Streptococcus uberis): 25 µg/mL (≈ 112 µM)
- MIC ([7]; Staphylococcus epidermidis MSSE 10-43): 1.5 µg/mL (≈ 6.75 µM)
- MIC ([7]; Staphylococcus epidermidis MSSE 10-44): 1.5 µg/mL (≈ 6.75 µM)
- MIC ([7]; Staphylococcus epidermidis MSSE 12-11): 32 µg/mL (≈ 144 µM)
- MIC ([7]; Staphylococcus epidermidis MSSE 12-12): 32 µg/mL (≈ 144 µM)
- MIC ([7]; Staphylococcus epidermidis MSSE 12-13): 64 µg/mL (≈ 288 µM)
- MIC ([7]; Staphylococcus epidermidis MSSE 12-14): 64 µg/mL (≈ 288 µM)
- MIC ([7]; Staphylococcus epidermidis MSSE 12-15): 64 µg/mL (≈ 288 µM)
- MIC ([7]; Staphylococcus epidermidis MSSE 12-16): 32 µg/mL (≈ 144 µM)
- MIC ([7]; Staphylococcus epidermidis MSSE 12-17): 32 µg/mL (≈ 144 µM)
- MIC ([7]; Staphylococcus epidermidis MSSE 12-18): 32 µg/mL (≈ 144 µM)
- MIC ([7]; Staphylococcus epidermidis MSSE 12-19): 32 µg/mL (≈ 144 µM)
- MIC ([7]; Staphylococcus epidermidis MSSE 12-20): 64 µg/mL (≈ 288 µM)
- protective effect on infected model mice (influenza virus H2N2): obvious protective effect
- MIC (Enterobacter cloacae; Enterobacter cloacae 12-1, read-out: MIC): 50 µg/mL (≈ 225 µM)
- MIC (Enterobacter cloacae; Enterobacter cloacae 12-2): 50 µg/mL (≈ 225 µM)
- MIC (Staphylococcus aureus; ATCC25923, Staphylococcus aureus ATCC 25923): 1.5 µg/mL (≈ 6.75 µM)
- MIC (Staphylococcus aureus; ATCC29213, Staphylococcus aureus ATCC 29213): 64 µg/mL (≈ 288 µM)
